Results reported in PMC9851200, “Multiparameter phenotypic screening for endogenous TFEB and TFE3 translocation identifies novel chemical series modulating lysosome function” (Autophagy, 2022).

Legend:
TFEB = assay: Cellular fractionation and western blot of nuclear/cytoplasmic TFEB; type: cell-based; conditions: nuclear/cytoplasmic TFEB ratio, western blot
Experimental: Cells were washed with cold PBS (ThermoFisher Scientific/Gibco, 10,010–015) and lysed in RIPA buffer (0.5% Triton X-100, 10 mM Tris/HCl, pH 8.0, 1 mM EDTA (Sigma Aldrich, E6511), 0.5 mM EGTA (Sigma Aldrich, E3889), 0.1% sodium dodecyl sulfate [SDS], 0.02% sodium deoxycholate (Sigma Aldrich, D6750), and 140 mM NaCl (Sigma Aldrich, S9625) supplemented with protease-inhibitor cocktail (Sigma Aldrich/Roche, 4,693,132,001) and phosphatase inhibitors (Roche/Sigma Aldrich, 4,906,845,001) for 30 min at 4°C. The lysates were centrifuged at 13,000 g for 15 min and the supernatants collected. Protein concentration was quantified using BCA reagent (Thermofisher Scientific, 23,252) and 4× SDS Laemmli buffer was added. The samples were boiled at 95°C for 5 min before SDS-polyacrylamide gel electrophoresis (SDS-PAGE) using Mini-PROTEAN® Precast Gels (Bio-Rad, 4,568,094). Ten micrograms of protein per lane were separated by SDS/PAGE and transferred to a PVDF membrane using the Trans-Blot Turbo Transfer System (Bio-Rad, Hercules, CA, USA). […] Nuclear and cytoplasmic fractions were assessed with a LMNA/lamin A/C antibody (Santa Cruz Biotechnology, sc-7292) or GAPDH antibody (Abcam, ab9484), respectively.
Figure S5. […] (C) The levels of nuclear/cytoplasmic TFEB were quantified and presented as a ratio. […]

SRPK1 = target: T1, SRPK1 (Homo sapiens, UniProt Q96SB4); assay: KiNativ in-cell kinase binding, SRPK1; conditions: SH-SY5Y cells, Labeling Site Lys2
T1 construct: endogenous in cells; host or cells: SH-SY5Y
Source text: As KINOMEscan is an in vitro assay, and as different cell types have variable kinase expression profiles we sought to determine the kinase binding profile in our SH-SY5Y TFEB-relocalization cell model. […] Bound kinases were pulled down and analyzed by mass spectrometry to determine the in situ kinase binding profile for each compound.

GFP-Ex1HTT74Q = assay: HTT aggregation assay, PC12 cells expressing GFP-Ex1HTT74Q; type: cell-based; conditions: 48 h, 16 nM - 2 µM
Experimental: PC12 cells stably expressing GFP-tagged exon 1 of HTT with a 74-repeat polyglutamine-expansion (GFP-Ex1HTT74Q) under tetracycline-inducible promoter control [41]were maintained at 37°C and 5% CO2 in RPMI medium (Sigma Aldrich, R8758) supplemented with 10% horse serum (Sigma Aldrich, H1138), 5% fetal bovine serum, 1% Glutamine (Sigma Aldrich, G7513), 1% Pen-Strep (Sigma, P0781), 0.1 mg/mL G418 (ThermoFisher, 10,131,035), and 0.07 mg/mL hygromycin B (ThermoFisher, 10,687,010). Cells were plated at a density of 10,000 per well in 96-well black cycloolefin thin-bottom plates (Perkin Elmer, 6,055,300) coated with collagen IV (Sigma Aldrich, C5533). After 5 h, expression of GFP-Ex1HttQ74 was induced with doxycycline (100 ng/mL; Sigma Aldrich, D3447). After 16 h of induction, compounds (final concentrations 16 nM – 2 µM) were added in fresh medium with doxycycline (100 ng/ml). Final concentration of DMSO (Sigma Aldrich, D8418) was 0.1% in all wells. After 48 h of incubation in the presence of compound, cells were washed once in PBS and fixed with 4% paraformaldehyde (Thermofisher Scientific, 28,908) supplemented with 10 µg/mL Hoechst 33,342 (ThermoFisher Scientific, H3570) for 15 min. […] Image feature extraction was carried out using CellProfiler software. Data aggregation, normalization and distance score calculations were carried out using StratoMineR software.

MINK1/MINK = MINK1/MINK (Homo sapiens, UniProt Q8N4C8); type: binding
[1] = target: kinases (KINOMEscan panel) (Homo sapiens, UniProt Q13153); type: binding
Sequence of kinases (KINOMEscan panel) (Homo sapiens, UniProt Q13153) (Q13153 whole entry): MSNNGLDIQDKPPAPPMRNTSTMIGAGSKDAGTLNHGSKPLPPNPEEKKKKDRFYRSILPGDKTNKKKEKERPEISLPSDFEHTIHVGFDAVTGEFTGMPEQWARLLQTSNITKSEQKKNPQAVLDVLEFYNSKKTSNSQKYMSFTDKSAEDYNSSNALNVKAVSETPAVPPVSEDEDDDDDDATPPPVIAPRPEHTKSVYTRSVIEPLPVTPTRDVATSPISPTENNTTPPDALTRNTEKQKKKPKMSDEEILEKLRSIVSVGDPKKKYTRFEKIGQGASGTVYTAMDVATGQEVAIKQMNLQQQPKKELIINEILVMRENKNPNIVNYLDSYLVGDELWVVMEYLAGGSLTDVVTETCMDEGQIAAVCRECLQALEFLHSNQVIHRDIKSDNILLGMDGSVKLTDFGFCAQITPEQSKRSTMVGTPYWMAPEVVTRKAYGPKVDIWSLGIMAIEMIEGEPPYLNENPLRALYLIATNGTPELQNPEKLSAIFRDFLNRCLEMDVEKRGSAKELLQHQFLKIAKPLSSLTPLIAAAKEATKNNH

[2] = target: kinases (KINOMEscan panel) (Homo sapiens, UniProt Q9NSY1); type: binding
Sequence of kinases (KINOMEscan panel) (Homo sapiens, UniProt Q9NSY1) (Q9NSY1 whole entry): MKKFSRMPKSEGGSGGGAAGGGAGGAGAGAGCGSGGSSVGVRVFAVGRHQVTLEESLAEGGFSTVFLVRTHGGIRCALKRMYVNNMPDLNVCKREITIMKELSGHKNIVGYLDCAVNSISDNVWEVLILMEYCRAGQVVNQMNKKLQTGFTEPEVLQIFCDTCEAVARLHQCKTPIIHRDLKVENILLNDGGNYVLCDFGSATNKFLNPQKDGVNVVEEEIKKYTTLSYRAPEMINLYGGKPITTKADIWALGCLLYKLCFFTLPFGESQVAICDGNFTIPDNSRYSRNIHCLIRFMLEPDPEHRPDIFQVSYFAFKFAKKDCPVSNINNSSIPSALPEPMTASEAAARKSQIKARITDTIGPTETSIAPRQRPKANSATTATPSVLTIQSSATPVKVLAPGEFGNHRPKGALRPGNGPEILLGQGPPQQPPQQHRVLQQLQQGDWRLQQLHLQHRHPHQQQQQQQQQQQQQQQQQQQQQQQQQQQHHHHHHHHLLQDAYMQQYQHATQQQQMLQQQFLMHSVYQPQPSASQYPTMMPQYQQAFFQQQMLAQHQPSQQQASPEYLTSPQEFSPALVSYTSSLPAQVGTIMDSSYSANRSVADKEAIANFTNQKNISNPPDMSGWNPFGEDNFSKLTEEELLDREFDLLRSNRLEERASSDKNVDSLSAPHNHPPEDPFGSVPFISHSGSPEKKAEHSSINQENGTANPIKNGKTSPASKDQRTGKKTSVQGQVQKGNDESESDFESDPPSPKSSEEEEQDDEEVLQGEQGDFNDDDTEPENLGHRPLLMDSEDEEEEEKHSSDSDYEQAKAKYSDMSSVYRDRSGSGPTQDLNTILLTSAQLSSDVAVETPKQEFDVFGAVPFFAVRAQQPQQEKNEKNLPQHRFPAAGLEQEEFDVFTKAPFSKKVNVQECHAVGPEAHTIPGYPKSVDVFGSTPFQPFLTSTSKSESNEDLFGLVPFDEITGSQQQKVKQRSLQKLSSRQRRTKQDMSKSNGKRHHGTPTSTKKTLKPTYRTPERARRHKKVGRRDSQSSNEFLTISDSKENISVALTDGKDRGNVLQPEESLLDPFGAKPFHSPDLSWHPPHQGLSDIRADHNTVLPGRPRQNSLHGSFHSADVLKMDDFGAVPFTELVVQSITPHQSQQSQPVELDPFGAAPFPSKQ

[3] = target: kinases (KINOMEscan panel) (Homo sapiens, UniProt Q13163); type: binding
[4] = target: kinases (KINOMEscan panel) (Homo sapiens, UniProt P27361); type: binding
Sequence of kinases (KINOMEscan panel) (Homo sapiens, UniProt P27361) (P27361 whole entry): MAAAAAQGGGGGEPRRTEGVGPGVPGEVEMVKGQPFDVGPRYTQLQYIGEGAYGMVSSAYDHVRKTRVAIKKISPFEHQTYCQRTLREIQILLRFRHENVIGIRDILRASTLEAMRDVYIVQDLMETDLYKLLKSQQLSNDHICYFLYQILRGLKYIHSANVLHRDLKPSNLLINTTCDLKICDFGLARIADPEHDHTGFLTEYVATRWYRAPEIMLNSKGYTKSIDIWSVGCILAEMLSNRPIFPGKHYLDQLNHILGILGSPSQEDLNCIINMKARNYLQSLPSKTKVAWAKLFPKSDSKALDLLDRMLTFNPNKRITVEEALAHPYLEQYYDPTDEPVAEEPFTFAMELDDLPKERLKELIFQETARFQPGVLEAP

[5] = target: kinases (KINOMEscan panel) (Homo sapiens, UniProt O00506); type: binding
[6] = target: kinases (KINOMEscan panel) (Homo sapiens, UniProt Q15831); type: binding
[7] = target: kinases (KINOMEscan panel) (Homo sapiens, UniProt O43283); type: binding
Sequence of kinases (KINOMEscan panel) (Homo sapiens, UniProt O43283) (O43283 whole entry): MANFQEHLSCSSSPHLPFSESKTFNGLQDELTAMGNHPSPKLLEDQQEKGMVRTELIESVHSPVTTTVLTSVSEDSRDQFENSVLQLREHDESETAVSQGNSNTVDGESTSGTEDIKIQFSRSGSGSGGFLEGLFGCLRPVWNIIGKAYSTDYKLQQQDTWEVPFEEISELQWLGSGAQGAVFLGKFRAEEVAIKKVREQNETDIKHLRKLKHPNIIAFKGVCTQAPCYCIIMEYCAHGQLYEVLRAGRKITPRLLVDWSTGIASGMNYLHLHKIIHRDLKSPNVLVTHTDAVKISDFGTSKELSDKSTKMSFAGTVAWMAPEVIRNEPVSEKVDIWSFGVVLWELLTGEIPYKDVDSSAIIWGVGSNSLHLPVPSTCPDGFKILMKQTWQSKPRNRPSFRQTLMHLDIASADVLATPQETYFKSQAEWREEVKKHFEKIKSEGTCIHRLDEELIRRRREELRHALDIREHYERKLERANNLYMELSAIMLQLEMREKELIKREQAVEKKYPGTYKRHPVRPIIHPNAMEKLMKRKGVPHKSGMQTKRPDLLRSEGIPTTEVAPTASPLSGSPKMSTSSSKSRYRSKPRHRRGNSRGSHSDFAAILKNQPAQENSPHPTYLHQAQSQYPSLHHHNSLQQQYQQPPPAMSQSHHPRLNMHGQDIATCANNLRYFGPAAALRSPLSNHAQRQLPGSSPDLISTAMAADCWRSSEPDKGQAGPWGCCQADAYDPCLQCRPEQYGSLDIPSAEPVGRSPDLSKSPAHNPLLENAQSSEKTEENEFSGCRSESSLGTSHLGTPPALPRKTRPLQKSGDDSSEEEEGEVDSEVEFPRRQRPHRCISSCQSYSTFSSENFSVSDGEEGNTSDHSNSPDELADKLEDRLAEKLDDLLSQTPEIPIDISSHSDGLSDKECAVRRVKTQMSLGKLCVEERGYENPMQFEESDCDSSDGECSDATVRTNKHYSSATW

[8] = target: kinases (KINOMEscan panel) (Homo sapiens, UniProt P23443); type: binding
Sequence of kinases (KINOMEscan panel) (Homo sapiens, UniProt P23443) (P23443 whole entry): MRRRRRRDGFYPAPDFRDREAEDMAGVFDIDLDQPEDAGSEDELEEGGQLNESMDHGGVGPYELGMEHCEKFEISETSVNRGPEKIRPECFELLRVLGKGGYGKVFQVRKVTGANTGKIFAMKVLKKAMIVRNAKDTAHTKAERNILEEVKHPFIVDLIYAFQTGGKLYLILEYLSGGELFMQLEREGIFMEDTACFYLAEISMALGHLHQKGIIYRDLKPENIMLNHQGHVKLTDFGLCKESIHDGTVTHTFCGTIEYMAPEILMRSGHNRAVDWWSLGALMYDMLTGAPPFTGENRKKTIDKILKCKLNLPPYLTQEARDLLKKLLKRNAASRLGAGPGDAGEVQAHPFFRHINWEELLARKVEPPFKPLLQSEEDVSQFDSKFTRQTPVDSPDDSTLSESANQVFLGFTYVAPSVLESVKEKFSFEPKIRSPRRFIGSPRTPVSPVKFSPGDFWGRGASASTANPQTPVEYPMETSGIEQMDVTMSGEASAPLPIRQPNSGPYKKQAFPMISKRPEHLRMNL

[9] = target: kinases (KINOMEscan panel) (Homo sapiens, UniProt Q16288); type: binding
Sequence of kinases (KINOMEscan panel) (Homo sapiens, UniProt Q16288) (Q16288 32-839): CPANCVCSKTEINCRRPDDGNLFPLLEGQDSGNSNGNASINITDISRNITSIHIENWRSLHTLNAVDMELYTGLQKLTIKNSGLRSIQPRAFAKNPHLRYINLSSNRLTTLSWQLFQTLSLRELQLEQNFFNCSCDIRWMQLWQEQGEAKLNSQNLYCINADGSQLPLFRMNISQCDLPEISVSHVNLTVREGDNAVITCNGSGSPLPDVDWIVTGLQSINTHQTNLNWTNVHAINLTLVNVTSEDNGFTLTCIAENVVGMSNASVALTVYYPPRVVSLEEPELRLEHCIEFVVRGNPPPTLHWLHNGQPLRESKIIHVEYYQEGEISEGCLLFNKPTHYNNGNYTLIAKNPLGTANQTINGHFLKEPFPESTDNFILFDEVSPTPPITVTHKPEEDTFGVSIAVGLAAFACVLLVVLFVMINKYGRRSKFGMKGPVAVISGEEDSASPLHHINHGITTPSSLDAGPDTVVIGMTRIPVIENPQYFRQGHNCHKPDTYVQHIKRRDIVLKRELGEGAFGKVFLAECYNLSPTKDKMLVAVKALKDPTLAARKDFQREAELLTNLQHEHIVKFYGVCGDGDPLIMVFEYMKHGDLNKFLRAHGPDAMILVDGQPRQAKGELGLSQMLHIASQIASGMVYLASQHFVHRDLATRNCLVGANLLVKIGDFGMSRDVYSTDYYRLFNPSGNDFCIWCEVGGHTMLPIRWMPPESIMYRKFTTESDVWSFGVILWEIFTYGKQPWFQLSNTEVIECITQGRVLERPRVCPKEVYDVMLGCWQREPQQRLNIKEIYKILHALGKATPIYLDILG

[10] = target: kinases (KINOMEscan panel) (Homo sapiens, UniProt Q9Y2K2); type: binding
[11] = target: kinases (KINOMEscan panel) (Homo sapiens, UniProt P0C264); type: binding
Sequence of kinases (KINOMEscan panel) (Homo sapiens, UniProt P0C264) (P0C264 whole entry): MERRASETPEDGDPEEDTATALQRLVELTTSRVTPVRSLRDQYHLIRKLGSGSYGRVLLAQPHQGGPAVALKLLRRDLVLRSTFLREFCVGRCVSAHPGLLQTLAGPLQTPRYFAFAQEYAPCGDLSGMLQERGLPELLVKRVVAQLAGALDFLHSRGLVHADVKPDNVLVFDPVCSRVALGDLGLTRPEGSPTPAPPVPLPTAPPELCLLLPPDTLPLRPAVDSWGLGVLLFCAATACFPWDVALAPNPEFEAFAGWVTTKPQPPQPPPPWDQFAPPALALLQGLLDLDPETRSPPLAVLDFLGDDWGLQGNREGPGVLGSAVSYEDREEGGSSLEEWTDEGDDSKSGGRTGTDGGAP

[12] = target: kinases (KINOMEscan panel) (Homo sapiens, UniProt P52564); type: binding

| SMILES | Translocation of TFEB to the nucleus, cellular fractionation (in words) (TFEB) | inhibition at 2 µM (SRPK1) [%] | HTT fluorescent aggregates / cells bearing aggregates (in words) (GFP-Ex1HTT74Q) | KINOMEscan MINK1/MINK (MINK1/MINK) | KINOMEscan PKN1/PAK1 [1] | KINOMEscan BMP2K/BIKE [2] | KINOMEscan MAP2K5/MEK5 [3] | KINOMEscan MAPK3/ERK1 [4] | KINOMEscan STK25/YSK1 [5] | KINOMEscan STK11/LKB1 [6] | KINOMEscan MAP3K13/LZK [7] | KINOMEscan RPS6KB1/S6K1 [8] | KINOMEscan NTRK3/TRKC [9] | KINOMEscan SIK3/QSK [10] | KINOMEscan SBK3/SgK110 [11] | KINOMEscan MAP2K6/MEK6 [12] |
| --- | --- | --- | --- | --- | --- | --- | --- | --- | --- | --- | --- | --- | --- | --- | --- | --- |
| Cc1cccc(-c2nc(Nc3ccc4ncsc4c3)c3ccccc3n2)n1 [NK140] | increased translocation of TFEB to the nucleus | 67.9 | no reduction in fluorescent aggregates | – | – | – | – | – | – | – | – | – | – | – | – | – |
| Cc1cccc(-c2nc(N(C)c3ccc4ncsc4c3)c3ccccc3n2)n1 [NK-161] | – | – | – | 22 | 0 | 12 | 0 | 14 | 2 | 0 | 22 | 0 | 29 | 0 | 0 | 12 |
